Measurements as given in the supplement of paper PMC10307832.

Compound: CC1(C)CCC(CN2CCN(c3ccc(C(=O)NS(=O)(=O)c4ccc(NCC5CCOCC5)c([N+](=O)[O-])c4)c(Oc4cnc5[nH]ccc5c4)c3)CC2)=C(c2ccc(Cl)cc2)C1 [Venetoclax] + CC(=O)Nc1cccc(-n2c(=O)n(C3CC3)c(=O)c3c(Nc4ccc(I)cc4F)n(C)c(=O)c(C)c32)c1 [Trametinib] (partner 0.02 µM)
Test: relative viability (nuclei count vs DMSO), 5 days (fraction); higher = more cells survive
Conditions: first compound 1 µM
Outline: (§1)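 After 5 days of treatment, lung cancer cells in 1536-well plates were fixed and stained in a single step (final 0.05% Triton X-100, 1% formaldehyde, 1 ug/ml Hoechst) and their nuclei counted on 4× images. Treatment had been applied by pin tool the day after seeding as one drug alone or as a fixed anchor-drug dose with five library-drug doses (not always all listed) in √10 steps. Relative viability is the nuclei count of treated wells divided by that of vehicle wells, and values are medians of duplicate plates.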

Cell Line	relative viability
NCI-H1437	0.435
NCI-H661	0.532
H3255	0.582
NCI-H2347	0.267
NCI-H1975	0.3
NCI-H441	0.5
NCI-H1650	0.529
NCI-H1915	0.299

Compound: CC1(C)CCC(CN2CCN(c3ccc(C(=O)NS(=O)(=O)c4ccc(NCC5CCOCC5)c([N+](=O)[O-])c4)c(Oc4cnc5[nH]ccc5c4)c3)CC2)=C(c2ccc(Cl)cc2)C1 [Venetoclax] + CC(C)C[C@H](NC(=O)[C@H](Cc1ccccc1)NC(=O)c1cnccn1)B(O)O [Bortezomib] (partner 0.002 µM)
Test: as above
Conditions: first compound 0.01 µM
Outline: as §1

Cell Line	relative viability
HARA	1.14
COR-L23	0.91
COR-L 105	0.867
LC-2-ad	0.834
LXF-289	1.03
ChaGo-K-1	1.08
NCI-H322M	1.37
HCC-78	0.523
BEN	0.61
HCC-15	1.05
HCC-827	1.04
NCI-H460	1.06
LU99A	1.13
NCI-H2085	0.976
A-427	0.983
NCI-H520	0.657
NCI-H838	0.949

Cell Line	relative viability
NCI-H1792	0.764
NCI-H596	1.01
NCI-H3122	1.06
201T	1.11
NCI-H1993	1.05
HOP-62	0.886
NCI-H1355	1.27
NCI-H2405	0.956
NCI-H1437	0.451
NCI-H661	0.722
H3255	0.784
NCI-H2347	0.927
NCI-H1975	0.424
NCI-H441	0.651
NCI-H1650	0.217
NCI-H1915	0.972

Same assay, conditions: first compound 0.03162 µM

Cell Line	relative viability
HARA	1.13
COR-L23	1.06
COR-L 105	0.902
LC-2-ad	1.02
LXF-289	0.966
ChaGo-K-1	1.11
NCI-H322M	1.18
HCC-78	0.583
BEN	1.06
HCC-15	1.04
HCC-827	1.06
NCI-H460	1.06
LU99A	1.32
NCI-H2085	1.14
A-427	0.988
NCI-H520	0.708
NCI-H838	0.957

Cell Line	relative viability
NCI-H1792	0.928
NCI-H596	0.857
NCI-H3122	0.968
201T	1.03
NCI-H1993	1.19
HOP-62	1.17
NCI-H1355	1.23
NCI-H2405	1.09
NCI-H1437	0.572
NCI-H661	0.762
H3255	0.855
NCI-H2347	1.5
NCI-H1975	0.393
NCI-H441	0.91
NCI-H1650	0.218
NCI-H1915	0.965

Same assay, conditions: first compound 0.1 µM

Cell Line	relative viability
HARA	0.937
COR-L23	0.982
COR-L 105	0.751
LC-2-ad	0.968
LXF-289	1
NCI-H322M	1.27
HCC-78	0.482
BEN	0.868
HCC-15	0.964
HCC-827	1.08
NCI-H460	1.06
LU99A	0.925
NCI-H2085	1.07
A-427	0.982
NCI-H520	0.431
NCI-H838	0.73

Cell Line	relative viability
NCI-H1792	1.05
NCI-H596	0.979
NCI-H3122	1.01
201T	1.11
NCI-H1993	0.988
HOP-62	0.746
NCI-H1355	1.2
NCI-H2405	0.94
NCI-H1437	0.475
NCI-H661	0.717
H3255	0.626
NCI-H2347	1.14
NCI-H1975	0.35
NCI-H441	0.532
NCI-H1915	0.908

Same assay, conditions: first compound 0.3162 µM

Cell Line	relative viability
HARA	1.12
COR-L23	0.98
COR-L 105	0.777
LC-2-ad	0.907
LXF-289	1.01
ChaGo-K-1	1.08
NCI-H322M	1.2
HCC-78	0.525
BEN	0.837
HCC-15	1
HCC-827	1.11
NCI-H460	1.03
LU99A	1.19
NCI-H2085	0.923
A-427	1.08
NCI-H520	0.628
NCI-H838	0.801

Cell Line	relative viability
NCI-H1792	0.924
NCI-H596	1.14
NCI-H3122	0.985
201T	1.09
NCI-H1993	1.04
HOP-62	0.665
NCI-H1355	1.11
NCI-H2405	0.982
NCI-H1437	0.42
NCI-H661	0.799
H3255	0.825
NCI-H2347	1.03
NCI-H1975	0.344
NCI-H441	0.451
NCI-H1650	0.205
NCI-H1915	0.971

Same assay, conditions: first compound 1 µM

Cell Line	relative viability
HARA	1.1
COR-L23	0.896
COR-L 105	0.691
LC-2-ad	0.94
LXF-289	0.87
ChaGo-K-1	0.926
NCI-H322M	1.2
HCC-78	0.477
BEN	0.749
HCC-15	0.875
HCC-827	1.01
NCI-H460	0.904
LU99A	1.23
NCI-H2085	0.946
A-427	1.06
NCI-H520	0.494
NCI-H838	0.797
